# How the values were obtained:
# Type in all cases: biochemical
# JAK1 = JAK1 (Homo sapiens, UniProt P23458); assay: JAK kinase activity, homogeneous time-resolved fluorescence (JAK1 reaction system); settings: ATP 2 μM, JAK1 protein 0.2 ng/μL; read-out: JAK 1 activity
# Procedure, shortened: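 HTRF assay: JAK1 (0.2 ng/μL) with 2 μM ATP and substrate in 50 mM Hepes pH 7.0, 5 mM MgCl2, 1 mM DTT, 1 h. Phospho-substrate antibody/XL-615 detection with EDTA; 665/615 nm ratio, excitation 320 nm. IC50 from Hill-type fit against no-enzyme and no-compound controls.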
# TYK2 = TYK2 (Homo sapiens, UniProt P29597); assay: JAK kinase activity, homogeneous time-resolved fluorescence (TYK2 reaction system); settings: ATP 2 μM, TYK2 protein 0.2 ng/μL; read-out: TYK 2 activity
# Procedure, shortened: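 Activity read as the 665 nm/615 nm ratio after adding EDTA-containing detection mix with anti-phospho-substrate antibody and XL-615. Beforehand, 0.2 ng/μL TYK2, 2 μM ATP, substrate and compound reacted 1 h in pH 7.0 Hepes buffer with MgCl2 and DTT. IC50 fitted with Hill-slope equation.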
# JAK3 = biological target: T1, JAK3 (Homo sapiens, UniProt P52333); assay: JAK kinase activity, homogeneous time-resolved fluorescence (JAK3 reaction system); settings: ATP 2 μM, JAK3 protein 0.04 ng/μL; read-out: JAK 3 activity
# T1 sequence (P52333 1-1124): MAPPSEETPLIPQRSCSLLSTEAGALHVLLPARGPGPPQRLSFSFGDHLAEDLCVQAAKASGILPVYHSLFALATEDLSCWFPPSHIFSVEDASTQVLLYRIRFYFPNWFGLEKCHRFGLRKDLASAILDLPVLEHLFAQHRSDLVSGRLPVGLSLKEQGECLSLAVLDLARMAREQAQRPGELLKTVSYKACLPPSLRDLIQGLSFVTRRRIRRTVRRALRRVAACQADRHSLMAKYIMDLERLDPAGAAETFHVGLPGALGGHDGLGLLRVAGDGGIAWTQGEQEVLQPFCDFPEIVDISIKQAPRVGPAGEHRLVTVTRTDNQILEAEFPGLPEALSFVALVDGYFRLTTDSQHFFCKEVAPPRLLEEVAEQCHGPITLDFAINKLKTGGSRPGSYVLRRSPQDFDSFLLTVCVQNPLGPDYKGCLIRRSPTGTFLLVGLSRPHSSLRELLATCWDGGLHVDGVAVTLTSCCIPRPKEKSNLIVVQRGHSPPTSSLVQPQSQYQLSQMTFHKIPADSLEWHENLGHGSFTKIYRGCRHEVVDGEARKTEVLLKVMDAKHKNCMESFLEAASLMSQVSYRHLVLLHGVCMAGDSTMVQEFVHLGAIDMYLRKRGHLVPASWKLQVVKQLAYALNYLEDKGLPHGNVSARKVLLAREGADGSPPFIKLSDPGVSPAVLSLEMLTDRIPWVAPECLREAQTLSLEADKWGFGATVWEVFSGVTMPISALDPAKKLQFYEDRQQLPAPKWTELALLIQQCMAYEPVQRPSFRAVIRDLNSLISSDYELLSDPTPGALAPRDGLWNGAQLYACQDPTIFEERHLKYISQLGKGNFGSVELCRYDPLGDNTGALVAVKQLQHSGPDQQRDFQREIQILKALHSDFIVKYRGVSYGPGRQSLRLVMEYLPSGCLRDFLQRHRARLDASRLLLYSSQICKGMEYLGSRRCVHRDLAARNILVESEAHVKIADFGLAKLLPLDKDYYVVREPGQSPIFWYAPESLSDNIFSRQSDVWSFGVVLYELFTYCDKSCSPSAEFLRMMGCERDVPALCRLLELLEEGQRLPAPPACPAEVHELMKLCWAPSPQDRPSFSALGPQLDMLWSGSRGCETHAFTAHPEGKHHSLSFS
# JAK2 = JAK2 (Homo sapiens, UniProt O60674); assay: JAK kinase activity, homogeneous time-resolved fluorescence (JAK2 reaction system); settings: ATP 2 μM, JAK2 protein 0.01 ng/μL
# Procedure, shortened: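 IC50 derived by Hill-equation fit of the 665/615 nm time-resolved fluorescence ratio after EDTA-containing detection mix with anti-phosphosubstrate antibody. Preceding 1 h reaction contained 2 μM ATP, 0.01 ng/μL JAK2, substrate, 50 mM Hepes pH 7.0, 5 mM MgCl2, 1 mM DTT.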
# Sequence of JAK2 (O60674 whole entry): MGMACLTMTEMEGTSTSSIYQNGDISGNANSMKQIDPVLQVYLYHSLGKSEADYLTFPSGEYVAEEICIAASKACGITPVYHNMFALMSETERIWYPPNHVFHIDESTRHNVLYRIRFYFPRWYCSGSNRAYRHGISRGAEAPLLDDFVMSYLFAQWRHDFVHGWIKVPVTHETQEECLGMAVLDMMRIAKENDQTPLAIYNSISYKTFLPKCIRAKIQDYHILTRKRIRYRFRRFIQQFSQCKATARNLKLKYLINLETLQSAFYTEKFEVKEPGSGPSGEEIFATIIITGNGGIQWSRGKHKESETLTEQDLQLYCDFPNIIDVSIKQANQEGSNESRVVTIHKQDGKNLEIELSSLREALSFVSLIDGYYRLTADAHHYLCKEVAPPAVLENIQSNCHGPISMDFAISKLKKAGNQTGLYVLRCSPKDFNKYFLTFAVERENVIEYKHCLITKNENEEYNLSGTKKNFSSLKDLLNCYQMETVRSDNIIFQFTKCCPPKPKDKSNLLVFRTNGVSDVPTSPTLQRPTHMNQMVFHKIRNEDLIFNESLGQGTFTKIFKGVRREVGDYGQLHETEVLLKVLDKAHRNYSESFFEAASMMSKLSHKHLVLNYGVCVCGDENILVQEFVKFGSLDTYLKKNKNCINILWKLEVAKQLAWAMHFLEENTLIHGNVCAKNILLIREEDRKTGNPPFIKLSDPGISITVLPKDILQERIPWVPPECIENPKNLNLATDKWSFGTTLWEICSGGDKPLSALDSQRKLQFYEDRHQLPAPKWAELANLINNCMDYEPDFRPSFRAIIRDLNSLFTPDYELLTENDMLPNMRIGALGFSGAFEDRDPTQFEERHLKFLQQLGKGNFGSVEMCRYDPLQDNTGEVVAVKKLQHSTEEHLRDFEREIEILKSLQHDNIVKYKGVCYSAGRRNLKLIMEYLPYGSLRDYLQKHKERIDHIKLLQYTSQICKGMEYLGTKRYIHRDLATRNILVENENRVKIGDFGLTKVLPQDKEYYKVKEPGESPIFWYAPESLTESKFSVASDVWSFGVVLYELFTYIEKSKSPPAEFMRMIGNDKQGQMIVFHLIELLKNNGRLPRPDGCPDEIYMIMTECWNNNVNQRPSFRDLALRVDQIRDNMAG
# Sequence of TYK2 (P29597 whole entry): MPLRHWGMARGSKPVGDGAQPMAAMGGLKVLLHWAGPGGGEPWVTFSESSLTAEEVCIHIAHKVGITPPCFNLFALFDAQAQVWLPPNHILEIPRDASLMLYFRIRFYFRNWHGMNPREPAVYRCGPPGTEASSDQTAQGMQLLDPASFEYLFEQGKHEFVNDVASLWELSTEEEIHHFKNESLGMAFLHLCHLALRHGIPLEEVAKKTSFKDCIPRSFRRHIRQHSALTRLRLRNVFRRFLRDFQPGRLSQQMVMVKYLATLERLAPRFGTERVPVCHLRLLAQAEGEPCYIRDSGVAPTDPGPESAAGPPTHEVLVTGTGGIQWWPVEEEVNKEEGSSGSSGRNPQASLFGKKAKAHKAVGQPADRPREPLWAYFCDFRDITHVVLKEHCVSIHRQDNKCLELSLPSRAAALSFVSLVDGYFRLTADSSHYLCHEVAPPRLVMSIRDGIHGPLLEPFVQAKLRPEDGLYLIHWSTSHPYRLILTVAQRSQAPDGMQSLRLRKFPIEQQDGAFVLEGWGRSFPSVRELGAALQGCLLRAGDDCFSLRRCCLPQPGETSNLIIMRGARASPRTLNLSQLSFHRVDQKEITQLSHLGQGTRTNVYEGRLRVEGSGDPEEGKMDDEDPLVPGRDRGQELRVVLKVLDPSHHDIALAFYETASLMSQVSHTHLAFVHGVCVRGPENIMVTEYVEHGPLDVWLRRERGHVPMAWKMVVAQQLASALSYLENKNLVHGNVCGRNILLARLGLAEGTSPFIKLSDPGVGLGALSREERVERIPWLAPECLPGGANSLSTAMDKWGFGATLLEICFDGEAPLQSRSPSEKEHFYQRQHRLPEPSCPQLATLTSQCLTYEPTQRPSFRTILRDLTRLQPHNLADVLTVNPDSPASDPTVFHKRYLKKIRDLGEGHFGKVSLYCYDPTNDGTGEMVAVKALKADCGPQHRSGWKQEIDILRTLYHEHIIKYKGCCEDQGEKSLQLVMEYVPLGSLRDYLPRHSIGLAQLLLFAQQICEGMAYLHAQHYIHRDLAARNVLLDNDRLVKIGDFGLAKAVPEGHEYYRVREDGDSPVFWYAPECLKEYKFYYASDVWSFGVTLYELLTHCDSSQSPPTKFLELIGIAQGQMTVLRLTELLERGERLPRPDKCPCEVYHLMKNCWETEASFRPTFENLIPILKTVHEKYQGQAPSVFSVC
# Sequence of JAK1 (P23458 whole entry): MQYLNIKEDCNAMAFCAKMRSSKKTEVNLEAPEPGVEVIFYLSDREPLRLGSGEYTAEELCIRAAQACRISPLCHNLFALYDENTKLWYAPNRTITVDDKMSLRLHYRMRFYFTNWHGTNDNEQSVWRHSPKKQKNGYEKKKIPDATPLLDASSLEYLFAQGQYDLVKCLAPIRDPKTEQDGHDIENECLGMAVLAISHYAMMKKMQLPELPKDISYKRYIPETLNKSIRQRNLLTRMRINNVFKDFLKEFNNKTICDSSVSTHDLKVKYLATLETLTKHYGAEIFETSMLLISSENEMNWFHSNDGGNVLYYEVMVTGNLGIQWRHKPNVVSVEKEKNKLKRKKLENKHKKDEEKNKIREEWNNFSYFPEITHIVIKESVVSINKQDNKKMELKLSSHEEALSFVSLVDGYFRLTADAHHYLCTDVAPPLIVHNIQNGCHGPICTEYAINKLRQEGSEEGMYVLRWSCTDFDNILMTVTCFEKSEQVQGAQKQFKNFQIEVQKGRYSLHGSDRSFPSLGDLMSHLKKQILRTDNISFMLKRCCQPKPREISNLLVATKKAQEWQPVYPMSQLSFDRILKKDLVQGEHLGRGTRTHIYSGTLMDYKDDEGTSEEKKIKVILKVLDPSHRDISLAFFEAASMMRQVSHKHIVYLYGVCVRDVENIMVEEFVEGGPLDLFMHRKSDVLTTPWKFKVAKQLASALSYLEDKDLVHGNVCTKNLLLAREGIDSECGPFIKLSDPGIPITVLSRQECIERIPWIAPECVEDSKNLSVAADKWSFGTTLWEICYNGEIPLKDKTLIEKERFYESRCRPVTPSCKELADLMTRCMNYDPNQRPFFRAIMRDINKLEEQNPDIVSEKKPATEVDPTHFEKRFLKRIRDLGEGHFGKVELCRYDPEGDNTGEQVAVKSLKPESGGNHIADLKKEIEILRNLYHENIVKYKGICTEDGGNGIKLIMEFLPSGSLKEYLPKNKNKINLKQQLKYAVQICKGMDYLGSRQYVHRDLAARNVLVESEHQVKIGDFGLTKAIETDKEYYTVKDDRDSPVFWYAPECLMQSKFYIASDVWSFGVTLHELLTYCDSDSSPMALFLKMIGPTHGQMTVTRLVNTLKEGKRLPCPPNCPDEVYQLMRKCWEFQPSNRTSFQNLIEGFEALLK
Compound,IC50 (JAK1) [nM],IC50 (TYK2) [nM],IC50 (JAK3) [nM],IC50 (JAK2) [nM]
"Nc1cc2ccc1-c1ccnc(n1)Nc1ccc(OCC3CC(F)(F)C3)c(c1)COCCCCNC2=O [Example 127, 1^2-Amino-4^4-((3,3-difluorocyclo-butyl)methoxy)-6-oxa-3,11-diaza-2(4,2)-pyrimidina-1(1,4),4(1,3)-di-benzenacyclododecaphan-12-one]",1000 to 10000,1000 to 10000,< 10,101 to 1000
"CC1CCNC(=O)c2ccc(c([N+](=O)[O-])c2)-c2ccnc(n2)Nc2ccc(OCC3CCCC3)c(c2)COC1 (stereo not shown) [Example 128, 4^4-(cyclopentylmethoxy)-8-methyl-1^2-nitro-6-oxa-3,11-diaza-2(4,2)-pyrimidina-1(1,4),4(1,3)-dibenzena-cyclododecaphan-12-one]",> 10000,> 10000,101 to 1000,> 10000
"CC1CCNC(=O)c2ccc(c([N+](=O)[O-])c2)-c2ccnc(n2)Nc2ccc(Oc3cccnc3)c(c2)COC1 (stereo not shown) [Example 129, 8-methyl-1^2-nitro-4^4-(pyridin-3-ox-yl)-6-oxa-3,11-diaza-2(4,2)-pyrimi-dina-1(1,4),4(1,3)-dibenzenacyclo-dodecaphan-12-one]",1000 to 10000,> 10000,101 to 1000,1000 to 10000
"CC1CCNC(=O)c2ccc(c(N)c2)-c2ccnc(n2)Nc2ccc(Oc3cccnc3)c(c2)COC1 (stereo not shown) [Example 130, 1^2-amino-8-methyl-4^4-(pyridin-3-oxy)-6-oxa-3,11-diaza-2(4,2)-pyri-midina-1(1,4),4(1,3)-dibenzenacyclo-dodecaphan-12-one]",1000 to 10000,> 10000,11 to 100,101 to 1000
"CC1CCNC(=O)c2ccc(c(N)c2)-c2ccnc(n2)Nc2ccc(OCC3CCCC3)c(c2)COC1 (stereo not shown) [Example 131, 1^2-amino-4^4-(cyclopentylmethoxy)-8-methyl-6-oxa-3,11-diaza-2(4,2)-pyrimidina-1(1,4),4(1,3)-dibenzena-cyclododecaphan-12-one]",1000 to 10000,> 10000,11 to 100,101 to 1000
CC1CCNC(=O)c2ccc(c(N)c2)-c2ccnc(n2)Nc2ccc(OCC(F)(F)F)c(c2)COC1 (stereo not shown) [Example 132],1000 to 10000,> 10000,< 10,101 to 1000
"O=C1NCCCCOCc2cc(ccc2OCC2CCc3ccccc32)Nc2nccc(n2)-c2ccc1cc2[N+](=O)[O-] (stereo not shown) [Example 133, 4^4-((2,3-dihydro-1H-inden-1-yl)methoxy)-1^2-nitro-6-oxa-3,11-diaza-2(4,2)-pyrimidina-1(1,4),4(1,3)-dibenzenacyclododecaphan-12-one]",> 10000,> 10000,1000 to 10000,> 10000
"Nc1cc2ccc1-c1ccnc(n1)Nc1ccc(OCC3CCc4ccccc43)c(c1)COCCCCNC2=O (stereo not shown) [Example 134, 1^2-amino-4^4-((2,3-dihydro-1H-inden-1-yl)methoxy)-6-oxa-3,11-diaza-2(4,2)-pyrimidina-1(1,4),4(1,3)-dibenzenacyclododecaphan-12-one]",1000 to 10000,1000 to 10000,11 to 100,1000 to 10000
"CC1CCNC(=O)c2ccc(c([N+](=O)[O-])c2)-c2ccnc(n2)Nc2ccc(OCC3CCOC3)c(c2)COC1 (stereo not shown) [Example 135, 8-methyl-1^2-nitro-4^4-((tetrahydro-furan-3-yl)methoxy)-6-oxa-3,11-diaza-2(4,2)-pyrimidina-1(1,4),4(1,3)-dibenzenacyclododecaphan-12-one]",1000 to 10000,> 10000,101 to 1000,1000 to 10000
"CC1CCNC(=O)c2ccc(c(N)c2)-c2ccnc(n2)Nc2ccc(OCC3CCOC3)c(c2)COC1 (stereo not shown) [Example 136, 1^2-amino-8-methyl-4^4-((tetrahydro-furan-3-yl)methoxy)-6-oxa-3,11-diaza-2(4,2)-pyrimidina-1(1,4),4(1,3)-dibenzenacyclododecaphan-12-one]",1000 to 10000,1000 to 10000,< 10,101 to 1000
"CC1CCNC(=O)c2ccc(c([N+](=O)[O-])c2)-c2ccnc(n2)Nc2ccc(OC3CCCOC3)c(c2)COC1 (stereo not shown) [Example 137, 8-methyl-1^2-nitro-4^4-((tetrahydro-2H-pyran-3-yl)oxy)-6-oxa-3,11-di-aza-2(4,2)-pyrimidina-1(1,4),4(1,3)-dibenzenacyclododecaphan-12-one]",1000 to 10000,> 10000,101 to 1000,1000 to 10000

# Further lines, results first:
IC50 (JAK1) [nM],IC50 (TYK2) [nM],IC50 (JAK3) [nM],IC50 (JAK2) [nM],Compound
1000 to 10000,1000 to 10000,< 10,101 to 1000,CC1CCNC(=O)c2ccc(c(N)c2)-c2ccnc(n2)Nc2ccc(OC3CCCOC3)c(c2)COC1 (stereo not shown) [Example 138]
1000 to 10000,> 10000,101 to 1000,1000 to 10000,"CC1CCNC(=O)c2ccc(c([N+](=O)[O-])c2)-c2ccnc(n2)Nc2ccc(OCC3CCCOC3)c(c2)COC1 (stereo not shown) [Example 139, 8-methyl-1^2-nitro-4^4-((tetrahydro-2H-pyran-3-yl)methoxy)-6-oxa-3,11-diaza-2(4,2)-pyrimidina-1(1,4),4(1,3)-dibenzenacyclododecaphan-12-one]"
1000 to 10000,1000 to 10000,< 10,101 to 1000,"CC1CCNC(=O)c2ccc(c(N)c2)-c2ccnc(n2)Nc2ccc(OCC3CCCOC3)c(c2)COC1 (stereo not shown) [Example 140, 1^2-amino-8-methyl-4^4-((tetrahydro-2H-pyran-3-yl)methoxy)-6-oxa-3,11-diaza-2(4,2)-pyrimidina-1(1,4),4(1,3)-dibenzenacyclododecaphan-12-one]"
> 10000,> 10000,1000 to 10000,> 10000,"CC1CCNC(=O)c2ccc(c([N+](=O)[O-])c2)-c2ccnc(n2)Nc2ccc(OCC3CCC3)c(c2)COC1 (stereo not shown) [Example 141, 4^4-(cyclobutylmethoxy)-8-methyl-1^2-nitro-6-oxa-3,11-diaza-2(4,2)-pyrimidina-1(1,4),4(1,3)-dibenzena-cyclododecaphan-12-one]"
1000 to 10000,> 10000,11 to 100,1000 to 10000,CC1CCNC(=O)c2ccc(c(N)c2)-c2ccnc(n2)Nc2ccc(OCC3CCC3)c(c2)COC1 (stereo not shown) [Example 142]
> 10000,> 10000,101 to 1000,> 10000,"Nc1cc2ccc1-c1ccnc(n1)Nc1ccc(Oc3ccncc3)c(c1)COCCCCNC2=O [Example 143, 1^2-amino-4^4-(pyridin-4-oxy)-6-oxa-3,11-diaza-2(4,2)-pyrimidina-1(1,4),4(1,3)-dibenzenacyclododeca-phan-12-one]"
> 10000,> 10000,1000 to 10000,> 10000,"CC1CCNC(=O)c2ccc(c([N+](=O)[O-])c2)-c2ccnc(n2)Nc2ccc(OCC3CC3)c(c2)COC1 (stereo not shown) [Example 144, 4^4-(cyclopropylmethoxy)-8-methyl-1^2-nitro-6-oxa-3,11-diaza-2(4,2)-pyrimidina-1(1,4),4(1,3)-dibenzena-cyclododecaphan-12-one]"
101 to 1000,1000 to 10000,< 10,101 to 1000,"CC1CCNC(=O)c2ccc(c(N)c2)-c2ccnc(n2)Nc2ccc(OCC3CC3)c(c2)COC1 (stereo not shown) [Example 145, 1^2-amino-4^4-(cyclopropylmethoxy)-8-methyl-6-oxa-3,11-diaza-2(4,2)-pyrimidina-1(1,4),4(1,3)-dibenzena-cyclododecaphan-12-one]"

# — patent US20230203059A1, “MACROCYCLIC JAK INHIBITOR AND USES THEREOF” (Biopolar Hongye (Guangdong) Pharmaceutical Co. Ltd., priority 2020, published 2023)
